# Results as given in patent EP1028734B1, “USE OF SPECIFIC STEADY-STATE R-TYPE CALCIUM CHANNEL BLOCKERS” (priority 1997, dated 1999).
# Like-named read-outs stand apart in the source and are kept apart here.
# Key:
# R-type Ca^2+ channel = assay: block of R-type Ca2+ channel (data not shown); format: cell-based
# [1] = anaesthetized rat, blood pressure, PAF challenge; format: in vivo; details: results not shown
# Excerpt: (§1) On the other hand, in vivo administered PAF, induced a marked hypotension in the anaesthetized rat and guinea pig.
# [2] = cited from earlier work
# fast Na^+ channel = assay: block of fast Na+ channel (data not shown); format: cell-based; details: read-out: ED50, fast Na^+ channel
# [3] = anaesthetized guinea pig, blood pressure and bronchoconstriction, PAF challenge; format: in vivo
# Excerpt: as §1
# [4] = La Civita et al., 1996; cited from earlier work
# [5] = tested on: human osteoblast cancer lines (MG63 and FAOS-2); assay: spontaneous proliferation of human osteoblast cancer lines; format: cell-based; details: Lomir/Dynacirc 10^-8M, nifedipine 10^-6M, non published results
# [6] = organ (allograft) transplant with cyclosporin A treatment, ET-1, blood flow, hypertension; format: in vivo, rabbit
# tail-flick in mice = format: in vivo; details: i.p.
# Excerpt: (§2) The antinociceptive actions of compound MV 8612 and MV 8608 were investigated in different models of nociception in mice as reported previously (Vaz et al., 1996, J. Pharmacol. Exp. Ther. 278:304-312).
# [7] = writhe responses in mice (acetic acid, acetylcholine, kaolin); format: in vivo; details: i.p., mice; for ID50 ACETYLCHOLINE: acetylcholine-induced writhes; for ID50 KAOLIN: kaolin-induced writhes
# Excerpt: as §2
# [8] = transplant patients, Berg et al., 1991
compound,measurement,setting,value
COc1cccc(CCN(C)CCCC(C#N)(c2ccc(OC)c(OC)c2)C(C)C)c1 (stereo not shown) [D888],block of the R-type Ca^2+ by L-type Ca^2+ channel blockers,R-type Ca^2+ channel,none were found to block
COc1ccc(CCN(C)CCCC(C#N)(c2cc(OC)c(OC)c(OC)c2)C(C)C)cc1OC (stereo not shown) [D600],block of the R-type Ca^2+ by L-type Ca^2+ channel blockers,R-type Ca^2+ channel,none were found to block
COC(=O)C1=C(C)NC(C)=C(C(=O)OC(C)C)C1c1cccc2nonc12 (stereo not shown) [isradipine],intrinsic hypotensive properties,[1],marked intrinsic hypotensive properties
same,filtration fraction,"[2]; 3-month study, Grossman et al. 1991",remained constant
same,filtration fraction,[2]; [8],reduced
same,renal blood flow,[2]; [8],increased
same,EC50,fast Na^+ channel,~10 µM
same,intrinsic (hypotensive) effect,[3],marked intrinsic hypotensive properties
same,"elevated plasma concentration of ET-1 level, frequency, severity of acute attacks of Raynaud's phenomenon",[4],significantly reduced
same,spontaneous cell proliferation,[5],reduced
same,elevated circulating endothelin level induced with the Sandimmune drugs,[6]; data not shown,blocks
same,hypertension and ET-1 plasma elevation associated with cyclosporin A treatment in allograft transplant,[6]; non published results,blocked
same,increase of circulating ET-1 and decrease of blood flow in organ transplants,"[6]; rabbit, cyclosporin-A treated and transplanted animals",restored
"CN1CC[C@]23c4c5ccc(O)c4O[C@H]2[C@@H](O)C=C[C@H]3[C@H]1C5 [MORPHINE, morphine]",ID50 TAIL-FLICK,tail-flick in mice,6.0(5.7-6.4) µmol/kg
same,ID50 ACETYLCHOLINE,[7],1.4 (1.0-1.8) µmol/kg
same,ID50 KAOLIN,[7],1.4 (1.2-1.7) µmol/kg
COC(=O)C1=C(C)NC(C)=C(C(=O)OC)C1c1ccccc1[N+](=O)[O-] [nifedipine],intrinsic hypotensive properties,[1],marked intrinsic hypotensive properties
same,intrinsic (hypotensive) effect,[3],marked intrinsic hypotensive properties
COc1ccc(CCN(C)CCCC(C#N)(c2ccc(OC)c(OC)c2)C(C)C)cc1OC (stereo not shown) [Verapamil],block of the R-type Ca^2+ by L-type Ca^2+ channel blockers,R-type Ca^2+ channel,none were found to block
"COc1ccc2c(c1)c(CC(=O)O)c(C)n2C(=O)c1ccc(Cl)cc1 [INDOMETHACIN, indomethacin]",ID50 TAIL-FLICK,tail-flick in mice,no effect
same,ID50 ACETIC ACID,[7]; acetic acid-induced writhes,1.2 (0.9-1.4) µmol/kg
same,ID50 ACETYLCHOLINE,[7],0.8 (0.5-1.0) µmol/kg
same,ID50 KAOLIN,[7],1.6 (1.4-1.8) µmol/kg
COc1ccc([C@@H]2Sc3cc(Cl)ccc3N(CCN(C)C)C(=O)[C@@H]2OC(C)=O)cc1 [Clentiazem],block of the R-type Ca^2+ by L-type Ca^2+ channel blockers,R-type Ca^2+ channel,none were found to block
COc1ccc([C@@H]2Sc3ccccc3N(CCN(C)C)C(=O)[C@@H]2OC(C)=O)cc1 [Diltiazem],block of the R-type Ca^2+ by L-type Ca^2+ channel blockers,R-type Ca^2+ channel,none were found to block
